The source of these data is patent US6660742B2, “Compositions and methods of the use thereof achiral analogues of CC-1065 and the duocarmycins” (priority 2000, dated 2003).

Some results are limits rather than exact numbers.

The conditions of series [1]: favoring the natural (+)-isomer; cited from earlier work.
For series [2] the following is noted: mice; therapeutic doses; cited from earlier work.
Series [3] has as its system melanoma. The following applies: phase I clinical trial; cited from earlier work.
In series [4] the test system is L1210 leukemia. The following applies: carzelesin 400 μg/kg, adozelesin 100 μg/kg; cited from earlier work.
Series [5] has as its system panel of 60 human cancer cell lines. Put plainly: NCI in-vitro cytotoxicity screen, whole panel. The series is classed as cell-based.
In series [6] the test system is K-562.
Description: (§1) The compounds of this invention were also tested against the panel of 60 human cancer cell lines at the National Cancer Institute, Bethesda, Md. […] The cytrotoxicity studies were conducted using a 48 hour exposure, and measuring the optical density of sulforhodamide B-derived color.
The test system of series [7] is LOX IMVI.
Description: (§2) The compounds of this invention were also tested against the panel of 60 human cancer cell lines at the National Cancer Institute, Bethesda, Md. (44). The cytrotoxicity studies were conducted using a 48 hour exposure, and measuring the optical density of sulforhodamide B-derived color.
The test system of series [8] is SF-268.
Description: as §2
Series [9] deals with HS 578T.
Description: as §2
The subject of series [10] is NCI-H322M.
In series [11] the test system is TK-10.
Description: as §1
Series [12] concerns SR.
Description: as §1
In series [13] the test system is OVCAR-8.
Description: as §2
Series [14] deals with HT29.
Description: as §1
For series [15], the system named is MOLT-4.
Description: as §1
Series [16] concerns CCRF-CEM.
Description: as §1
For series [17], the system named is BT-549.
Description: as §2
Series [18] has as its system NCI-H23.
Description: as §1
The test system of series [19] is mouse L1210 leukemia cells. Conditions: cited from earlier work.

Regarding CPI-In-In, in series [1], the “difference in cytotoxicity between enantiomers” value was “about 250 fold”.
As to `Cc1c[nH]c2c1[C@@]13C[C@@H]1CN(C(=O)c1cc4cc(NC(=O)c5cc6ccccc6o5)ccc4[nH]1)C3=CC2=O` [adozelesin], the “delayed lethality / delayed toxicity” value in series [2] is recorded as “devoid of the delayed toxicity problem”. In addition, in series [3], the clinical response result is “partial response”. For the same compound, in series [4], the ILS was 90±11% and the survival is given as 0/6.
As for `COc1cc2cc(C(=O)Nc3cc(O)ccc3CCCl)[nH]c2c(OC)c1OC` [Compound 3, 4-(2-Chloroethyl)-3-(5,6,7-trimethoxyindole-2-carboxamino)phenol], the range of activity result in series [5] (48 hour exposure) is listed as “micromolar range”. In addition, the “activity against leukemia cells” value in series [5] (leukemia cells) was “none of these compounds showed much activity”. Besides, in [5] (melanoma cells), the “activity against melanoma cells” value is “active”. Besides, in [5] (solid tumors cells), the “activity against solid tumors cells” value is “strong activity”. The CC50 in series [6] was greater than 100 µM; in series [7], greater than 100 µM; in series [8], greater than 100 µM; in series [9] it was greater than 100 µM; in series [10] it was greater than 100 µM; in series [11], 23.5 µM. The CC50 in [12], in series [13], in series [14], in series [15], in [16] and in series [17] was greater than 100 µM in each case. The compound also came in with a CC50 in series [18] greater than 100 µM. In addition, the GI50 in series [10] turned out to be 2.81 µM.
For the compound `COc1c2c(c3cc(C(=O)N4CCc5c4c(OC)c(O)c4[nH]c(C(=O)N6CC7C[C@@]78C6=CC(=O)c6[nH]cc(C)c68)cc54)[nH]c3c1O)CCN2C(N)=O` (single isomer, unassigned; (+)) [(+)-CC1065], the “delayed lethality / delayed toxicity” value in series [2] was “delayed lethality”. The IC50 in [19] (L1210) was 20 pM. Also, the “IC50 values (range in words)” value in series [19] (growth of mouse L1210 leukemia cells in culture) was “pM range”.
